Assays:
hTERT = hTERT mRNA and protein expression, western blot and qPCR (FIG. 10, 11); format: cell-based, human; conditions: LNCaP, different concentrations, western blot
Description: To analyze the changes in the hTERT expression level and telomerase activity by the treatment with the produced peptides, real-time PCR was performed. Total RNA was extracted from cells by using an Easy-blue RNA extraction reagent (Intron, Korea), and subsequently, the extracted RNA was reverse transcribed using M-ML V reverse transcriptase (Invitrogen, CA). The PCR reaction was then performed using a LightCycler 480 SYBR Green I Master (Roche, Germany) according to the manufacturer's instructions. […]
Quantitative real-time RT-PCR (qRT-PCR) was performed using a Power SYBR Green 1-Step Kit and an ABI 7000 Real Time PCR System (Applied Biosystems, Carlsbad, CA, USA) according to the manufacturer's indications. […] The results were expressed as the ratio of target PCR product to GAPDH product. […] The quantification was performed using the ΔΔCT method (Applied Biosystems) with the RQ manager 1.2 software. Data are expressed as mean±SD. […]
After treatment with GV1001, HS1001, HS1002, and GnRH, the changes in hTERT mRNA and protein expression level were investigated for each peptide. […] To investigate the telomerase activity reducing effect of the peptides, prostate cancer cell lines (LNCaP) were treated with each drug at 300 μM every 24 h for a total of 72 h and then measured for telomerase activity through qPCR. […]

[1] = system: prostate cancer cell line (LNCaP); experiment: MTT cytotoxicity comparison of peptides at the same concentration (FIG. 6); format: cell-based, human; conditions: 300 μM, 48 h, 1% FBS, among GV1001, GnRH, HS1001, HS1002
Description: The prostate cancer cell line (LNCaP), in which the reactivity of HS1002 to hTERT had been best, were used to investigate the cytotoxic effects of GV1001, GnRH, HS1001, and HS1002 under conditions of 1,500 cells/well, 1% FBS, and 48-hour treatment. The prostate cancer cells were seeded at 1.5×10^3 cells per well in a 96-well plate, and then incubated in an incubator for one day. Thereafter, the cells were treated with HS1001, HS1002, GV1001, and GnRH diluted to (300, 200, 100, and 50 μM) in fresh media. After 48-h incubation, an MTT reagent (3-(4,5-dimethylthiazol-2-yl)-2,5-diphenyltetrazolium bromide, Sigma-Aldrich, M6494) was added, and subsequently the plate was shielded from light and kept in an incubator for 3 h. Thereafter, the MTT solution was discarded, and 100 μL of dimethyl sulfoxide (DMSO, 99.9%, HPLC grade, DAEJUNG CHEMICALS & METALS, 3047-2304) was added to each well, and subsequently the plate was shielded from light and then left at room temperature for 20 min. After that, the absorbance was measured at 540 nm using a microplate reader.

LNCaP tumors = experiment: LNCaP xenograft model, tumor volume, tumor weight and body weight (FIG. 17); format: in vivo; conditions: LNCaP xenograft BALB/c nude mice, 1 mg/kg/day s.c., 13 days
Description: All mice were purchased from Central Lab Animal Inc. ([…]). They were raised in a 12 h environmental light/dark cycle with controlled temperature (22±2° C.) conditions. The experimental protocol was approved by the Sungkyunkwan University Institutional Animal Care and Use Committee (SKKUIACUC2021-06-27-1, SKKUIACUC2023-01-07-1). For the establishment of tumors, LNCaP (1×10^7), MC38 (2×10^5), and 4T1 (1×10^6) suspended in serum-free media containing 50% Matrigel was subcutaneously administered in the right flank of mice, respectively. The tumor volumes (V) were calculated using a caliper and the standard equation: V (mm^3)=0.52 (ab^2) (a=length, b=width). Once the tumor reached 100-200 mm^3, the mice were randomly divided into different groups and subcutaneously injected with a vehicle or each peptide every day.
To investigate the anticancer effect of HS1002, the present inventors observed the volume of cancer cells after transplanting the cancer cells into experimental animals. Specifically, mice (4-week-old male BALB/c nude mice; Central Lab. Animal Inc., Seoul, Korea) were prepared, and tumor cells (1×10^7 LNCaP cells) suspended in 1 mL of a serum-free medium containing 50% Matrigel were percutaneously injected into the upper flank of each nude mouse. When the tumor cell volume reached about 200 mm^3, the mice were randomly assigned to a vehicle control group, a leuprolide acetate-treated group, and test groups (GV1001-treated group and HS1002-treated group), respectively. Leuprolide acetate (0.1 mg/kg/day) and GV1001 and HS1002 (1 mg/kg/day) were injected subcutaneously for 13 days.

## CCNC(=O)[C@@H]1CCCN1C(=O)[C@@H](NC(=O)[C@H](Cc1ccccc1)NC(=O)[C@H](CCCNC(=N)N)NC(=O)[C@H](CC(C)C)NC(=O)[C@H](CCCNC(=N)N)NC(=O)[C@H](Cc1ccc(O)cc1)NC(=O)[C@H](CO)NC(=O)[C@H](Cc1c[nH]c2ccccc12)NC(=O)[C@H](Cc1c[nH]cn1)NC(=O)[C@@H]1CCC(=O)N1)[C@@H](C)CC [HS1002]
hTERT
  hTERT protein expression, concentration dependence: reduced with an increasing concentration
[1]
  cytotoxicity to prostate cancer cells: cytotoxicity to prostate cancer cells was highest
LNCaP tumors
  other toxicity: no other toxicity
  reduction of tumor volume: about 50%
  reduction of tumor weight: about 50%

Source: patent publication US20240247031A1, “COMPOSITION FOR TREATING CANCER CONTAINING TELOMERASE-TARGETING GNRH ANTAGONIST-DERIVED PEPTIDE HS1002” (Research & Business Foundation Sungkyunkwan University, priority 2023, published 2024)
